Three compounds from article PMC5908784, “Extracellular loops 2 and 3 of the calcitonin receptor selectively modify agonist binding and efficacy” (Biochemical Pharmacology, 2018) can be followed below.

Where a chain is given by its changes, count along the chain named. Where two headings read alike, the source gives them in different places. Where a SMILES comes first, the peptide text is derived from it. Bridges are numbered along the chain shown (N, C = ends).

What all share (assay): IP1 accumulation
Holding throughout (type): cell-based

Assay [1] concerns the target T1, hCTR N286A (Homo sapiens, UniProt P30988, N286A).
T1 construct: c-Myc (N); expressed in transfected cells
T1 sequence (P30988 25-474 N286A): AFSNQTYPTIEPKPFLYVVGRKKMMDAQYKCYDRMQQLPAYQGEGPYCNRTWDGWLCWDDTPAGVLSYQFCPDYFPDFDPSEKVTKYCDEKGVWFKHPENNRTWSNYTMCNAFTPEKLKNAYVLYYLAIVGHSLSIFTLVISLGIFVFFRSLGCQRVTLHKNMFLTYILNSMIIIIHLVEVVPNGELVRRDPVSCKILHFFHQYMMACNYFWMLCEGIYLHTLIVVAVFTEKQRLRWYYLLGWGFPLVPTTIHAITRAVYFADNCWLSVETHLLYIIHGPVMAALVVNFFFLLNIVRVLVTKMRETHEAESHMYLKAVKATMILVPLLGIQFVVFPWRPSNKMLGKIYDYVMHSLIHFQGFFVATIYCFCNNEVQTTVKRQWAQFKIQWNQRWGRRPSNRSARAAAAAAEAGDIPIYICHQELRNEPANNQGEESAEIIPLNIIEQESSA
As to conditions: mean ± S.E.M.; for Emax: IP1 maximal response, SEM. Summed up:
(§1)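 Cells bearing the mutant calcitonin receptor were plated overnight, then stimulated with increasing ligand concentrations for 60 min in the presence of LiCl. Endogenous IP1 was read by HTRF after lysis.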

In assay [2] the target is T2, hCTR T295A (Homo sapiens, UniProt P30988, T295A).
T2 construct: c-Myc (N); expressed in transfected cells
T2 sequence (P30988 25-474 T295A): T1 sequence (P30988 25-474 N286A) with A262N, T271A
As to conditions: mean ± S.E.M.; for Emax: IP1 maximal response, SEM. Summed up: as §1

Assay [3] has as its target T3, hCTR Y374A (Homo sapiens, UniProt P30988, Y374A).
T3 construct: c-Myc (N); expressed in transfected cells
T3 sequence (P30988 25-474 Y374A): T1 sequence (P30988 25-474 N286A) with A262N, Y350A
As to conditions: mean ± S.E.M.; for Emax: IP1 maximal response, SEM. Summed up:
as §1

In assay [4] the target is T4, hCTR L291A (Homo sapiens, UniProt P30988, L291A).
T4 construct: expressed in transfected cells
T4 sequence (P30988 25-474 L291A): T1 sequence (P30988 25-474 N286A) with A262N, L267A
As to conditions: mean ± S.E.M.; for Emax: IP1 maximal response, SEM. A digest of the protocol:
as §1

The target in assay [5] is T5, hCTR F359A (Homo sapiens, UniProt P30988, F359A).
T5 construct: expressed in transfected cells
T5 sequence (P30988 25-474 F359A): T1 sequence (P30988 25-474 N286A) with A262N, F335A
As to conditions: for Emax: read-out: Emax (% WT), SEM. Summed up: as §1

Where [6] appears, read: IP1, CV1-FlpIn cells, 60 min, LiCl.

`CC[C@H](C)[C@H](NC(=O)[C@H](C)NC(=O)[C@@H](NC(=O)[C@H](CCC(N)=O)NC(=O)[C@@H]1CCCN1C(=O)[C@H](Cc1ccccc1)NC(=O)[C@@H](NC(=O)[C@H](Cc1c[nH]cn1)NC(=O)[C@H](Cc1ccccc1)NC(=O)[C@H](CCCCN)NC(=O)[C@H](CC(N)=O)NC(=O)[C@H](Cc1ccccc1)NC(=O)[C@H](CC(=O)O)NC(=O)[C@H](CCC(N)=O)NC(=O)[C@@H](NC(=O)[C@H](Cc1ccc(O)cc1)NC(=O)[C@@H](NC(=O)CNC(=O)[C@H](CC(C)C)NC(=O)[C@H](CCSC)NC(=O)[C@@H]1CSSC[C@H](N)C(=O)NCC(=O)N[C@@H](CC(N)=O)C(=O)N[C@@H](CC(C)C)C(=O)N[C@@H](CO)C(=O)N[C@@H]([C@@H](C)O)C(=O)N1)[C@@H](C)O)[C@@H](C)O)[C@@H](C)O)[C@@H](C)O)C(=O)NCC(=O)N[C@H](C(=O)NCC(=O)N[C@@H](C)C(=O)N1CCC[C@H]1C(N)=O)C(C)C` [hCT]: the Emax in assay [1] came to 40 ± 3%; in assay [2] it was 43 ± 4%; in assay [3] it was 110 ± 9%; in assay [4], 71 ± 16%; in assay [5], 101 ± 9%.
For `CSCC[C@H](NC(=O)CNC(=O)[C@H](CO)NC(=O)[C@H](Cc1ccccc1)NC(=O)[C@H](CCCNC(=N)N)NC(=O)[C@H](Cc1c[nH]cn1)NC(=O)[C@H](Cc1ccccc1)NC(=O)[C@H](CC(N)=O)NC(=O)[C@H](CC(N)=O)NC(=O)[C@H](CC(C)C)NC(=O)[C@H](CC(N)=O)NC(=O)[C@H](CCCNC(=N)N)NC(=O)[C@H](Cc1c[nH]c2ccccc12)NC(=O)[C@H](Cc1ccc(O)cc1)NC(=O)[C@H](C)NC(=O)[C@H](CO)NC(=O)[C@H](CC(C)C)NC(=O)[C@@H](NC(=O)[C@@H]1CSSC[C@H](N)C(=O)N[C@@H](CO)C(=O)N[C@@H](CC(N)=O)C(=O)N[C@@H](CC(C)C)C(=O)N[C@@H](CO)C(=O)N[C@@H]([C@@H](C)O)C(=O)N1)C(C)C)C(=O)NCC(=O)N[C@@H](Cc1ccccc1)C(=O)NCC(=O)N1CCC[C@H]1C(=O)N[C@@H](CCC(=O)O)C(=O)N[C@H](C(=O)N1CCC[C@H]1C(N)=O)[C@@H](C)O` [pCT] (H-CSNLSTCVLSAYWRNLNNFHRFSGMGFGPETP-NH2; disulfide 1-7), the concentration giving a half-maximal response (EC50) in assay [1] (setting [6]) was 0.562 nM; in assay [2] (setting [6]), 4.57 nM; in assay [3] (setting [6]), 12.3 nM; in assay [4] (setting [6]), 1.62 nM; in assay [5] (F359A, IP1, CV1-FlpIn cells, 60 min, LiCl, mean ± S.E.M.), 13.2 nM. Besides, the Emax in assay [1] was 76 ± 6%; in assay [2], 56 ± 7%; in assay [3] it was 106 ± 6%; in assay [4], 67 ± 6%; in assay [5] (F359A, IP1 maximal response, mean ± S.E.M.) it was 77 ± 6%.
Regarding `CC(C)C[C@H](NC(=O)[C@H](CCCCN)NC(=O)CNC(=O)[C@H](CC(C)C)NC(=O)[C@@H](NC(=O)[C@@H]1CSSC[C@H](N)C(=O)N[C@@H](CO)C(=O)N[C@@H](CC(N)=O)C(=O)N[C@@H](CC(C)C)C(=O)N[C@@H](CO)C(=O)N[C@@H]([C@@H](C)O)C(=O)N1)C(C)C)C(=O)N[C@@H](CO)C(=O)N[C@@H](CCC(N)=O)C(=O)N[C@@H](CCC(=O)O)C(=O)N[C@@H](CC(C)C)C(=O)N[C@@H](Cc1c[nH]cn1)C(=O)N[C@@H](CCCCN)C(=O)N[C@@H](CC(C)C)C(=O)N[C@@H](CCC(N)=O)C(=O)N[C@H](C(=O)N[C@@H](Cc1ccc(O)cc1)C(=O)N1CCC[C@H]1C(=O)N[C@@H](CCCNC(=N)N)C(=O)N[C@H](C(=O)N[C@@H](CC(N)=O)C(=O)N[C@H](C(=O)NCC(=O)N[C@@H](CO)C(=O)NCC(=O)N[C@H](C(=O)N1CCC[C@H]1C(N)=O)[C@@H](C)O)[C@@H](C)O)[C@@H](C)O)[C@@H](C)O` [sCT], the maximal response (Emax) was found to be 59 ± 5% in assay [1]; 53 ± 7% in assay [2]; 102 ± 6% in assay [3]; 85 ± 4% in assay [4]; 125 ± 6% in assay [5].
